Assay results reported in US10406227B2, “Photoactivated molecules for light-induced modulation of the activity of electrically excitable cells and methods of using same” (University of Southern California, priority 2012, dated 2019).
Where two headings read alike, the source gives them in different places.

Columns and labels:
[1] = cited from earlier work
HEK293T cells = assay: Whole cell patch clamp, current-clamp membrane potential under blue light; format: cell-based, human
Description: Membrane potential was monitored using whole cell patch clamp in current-clamp mode. Cultured cells (INS and HEK293) were plated on a glass-bottomed culture dishes 1-3 days prior to recording. Cells were incubated in standard extracellular solution with or without 10 μM RubpyC17 compound for approximately 1.5-2 minutes, then washed and incubated with standard extracellular solution without additional supplementation, or with 2-5 mM ascorbate, 100 μM sodium ferrocyanide, or 100-200 μM potassium ferricyanide, as indicated. The chamber was transferred to the microscope stage. Extracellular solution consisted of 140 mM NaCl, 2.8 mM KCl, 10 mM HEPES, 1 mM MgCl2, 2 mM CaCl2, 10 mM glucose, pH adjusted to 7.3, and osmolarity adjusted to 300-310. Conventional whole-cell patch clamp recordings were performed with an EPC-9 amplifier and Pulse software (HEKA Electronics). Pipette electrodes of 1.8-3.5 Mohm were fire polished before use. Intracellular solution consisted of: 145 mM KCl, 10 mM NaCl, 1 mM MgCl2, 1 mM EGTA, 2 mM ATP, 0.3 mM GTP and 10 mM HEPES, pH adjusted to 7.3 and osmolarity adjusted to 290-300 mOsm. To monitor changes in membrane voltage/potential, cells were patch clamped in current-clamp mode. Access resistances were in the range of 3-8 Mohm. Using Pulse, membrane potentials were recorded before, during and after illumination by the argon ion laser at 488 nm with an irradiance value of 0.458 mE s^−1 m^−2 or by a xenon lamp source through a 470/40 nm bandpass excitation filter with an irradiance value of 0.480 mE s^−1 m^−2. […]
Initial attempts were tied to INS and HEK cells, both cells that are not excitable under normal conditions (INS cells were maintained in low glucose <3 mM to prevent action potentials). […] To monitor the plasma membrane potential, the cells were patch-clamped in whole-cell configuration in current-clamp mode and membrane voltages were recorded while illuminating the cell at 488 nm (0.46-0.48 mE s^−1 m^−2), though other wavelengths are useful, depending on the embodiment.

[2] = test system: cell lines and primary cells; assay: Cell health / tolerance on RubpyC17 exposure (stable gigaseal, viability); format: cell-based
Description: However, in several embodiments, other organic ligands coupled to other transition metals are also used, with reduced and/or non-existent adverse side effects. […] Excessive and prolonged whole cell incubation with RubpyC17 (e.g., >10 μM for >5 min) may result in cell toxicity, since a stable gigaseal cannot be stably maintained in those cells. At this time, the mechanism behind the adverse effects on cell health upon RubpyC17 overexposure is not yet fully known. Since perforation was not achieved when a small patch of membrane was exposed to a high dose of RupbyC17, it was hypothesized that when an entire cell is overexposed to RubpyC17, there may be sufficient random interactions between excess RubpyC17 complex and endogenous surface molecules (i.e., proteins, carbohydrates, sugars), triggering signals that lead to cell health deterioration. However, when used in its appropriate dose range (e.g., <about 10 μM for cell lines and <about 2 μM for primary cells, according to one embodiment), RubpyC17 is tolerated by cells and consistently confers light sensitivity.

RCS rats = assay: Retina histology / pathology after intravitreal injection; format: in vivo, rat
From the text: This finding was reproduced in 3 of 3 RCS rats injected with Rubpy-C17, and in 2 of 2 control (sham injection) RCS rats.

chromaffin cells [3] = assay: Cell-attached membrane perforation test (capacitive charging transient); format: cell-based, mouse; conditions: 18 μM in patch pipette; 10 minutes after gigaseal formation
From the text: (§1) FIGS. 5A-5H depict data from various experiments related to characteristics of RubpyC17-loaded cells. […] Inset images shown to the right of trace confirmed proper integration of RubpyC17 in patched cells. FIGS. 5C-5E show the light-induced action potential firing in chromaffin cells was not due to biophysical changes in voltage-gated ion channels as there were no significant changes in current-voltage relationships (C-D) nor in steady-state activation curve (E) in RubpyC17-loaded chromaffin cells before (open circle) or during ([…]) light illumination. […] Peak inward currents from each stimulation jump were plotted against corresponding stimulating voltages (n=6). […] Data from representative cell is shown (n=5). […] Currents resulting from capacitor-like behavior of chromaffin cell membranes during hyperpolarizing jumps to −85 mV from a resting membrane potential of −80 mV were recorded 5 min following giga-seal formation for amphoterecin B (bottom trace) or 10 min following giga-seal formation for RubpyC17 (top trace).
Finally, to test whether illumination of RubpyC17 incorporated in cell membranes causes nonspecific membrane poration or other damage, 18 μM RubpyC17 was loaded inside a patch pipette and attached to a cell (gigaseal formation) in the cell-attached configuration. […]

chromaffin cells [4] = assay: Voltage-clamp current-voltage relationship and steady-state activation before and during light; format: cell-based, mouse; conditions: before vs during light illumination
From the text: as §1
To examine whether light-activated RubpyC17 can directly interact and open or block endogenous ion channels, HEK293T cells were preincubated with RubpyC17, and patch-clamped in a voltage-clamp configuration. Voltage-clamp configuration allowed the cells to be clamped at a potential where most voltage-gated ion channels are closed (approximately −80 mV). […]

[Ru(bpy)2(bpy-C17)](PF6)2 [RubpyC17]
electron transfer rate ket ([1]; photo-activated RubpyC17 to oxidant ferricyanide, aqueous solution): ~6.5e+09 M⁻¹ s⁻¹
electron transfer rate ket ([1]; reductant ascorbate to photo-activated RubpyC17): ~2e+07 M⁻¹ s⁻¹
light-induced depolarization (HEK293T cells; 10 μM ~2 min preincubation, 2 mM ascorbate, 488 nm): 14.6 ± 2.4 mV
light-induced hyperpolarization (HEK293T cells; 100 uM ferricyanide in extracellular solution): 20.9 ± 4.9 mV
light-induced depolarization with ferrocyanide as reductant (HEK293T cells; 0.1 mM ferrocyanide): light-induced depolarization was also observed
tolerated dose range ([2]; cell lines): < 10 µM
whole cell incubation concentration that may result in cell toxicity ([2]; for >5 min, stable gigaseal not maintained): > 10 µM
viability of chromaffin cells ([2]; incubations of ˜30 min): continued viability
tolerated dose range ([2]; primary cells): < 2 µM
histology of the retina (RCS rats; 3 days after injection, preliminary): no evidence of retinal cell death or white blood cell infiltrates
initial pathology studies (RCS rats; eyes injected with Rubpy-C17): absence of obvious signs of deleterious effects
capacitive charging transient (membrane perforation) (chromaffin cells [3]): an increase in the capacitive charging transient was not detected
effect on biophysical properties of endogenous ion channels (I-V, steady-state activation) (chromaffin cells [4]): does not alter the biophysical properties of endogenous ion channels
